Test results from patent publication US20120128745A1, “BENZYLIDENE MALONATES” (BASF SE, priority 2009, published 2012).

Tests used:
[1] = stabilization (photostability) of Butyl Methoxydibenzoylmethane in O/W emulsion film under solar simulator, HPLC; type: physicochemical; details: 20 μm film on quartz plate, solar simulator 2 h (10 MED)
Experimental: Testing of stabilization of Butyl Methoxydibenzoylmethane (BMDBM, Parsol 1789):
The photostability of Butyl Methoxydibenzoylmethane is determined by spreading the emulsion as a 20 μm thick film on a quartz plate. The film is irradiated using a solar simulator for 2 h (10 MED). After irradiation, the quartz plate is plunged into 5 ml of tetrahydrofurane. The amount of UV-A filter Butyl Methoxydibenzoylmethane is then determined using high performance liquid chromatography. The residual Butyl Methoxydibenzoylmethane is determined to be 47%.
The photostability of Butyl Methoxydibenzoylmethane in the comparative formulation C is determined as described above for formulation B. The residual Butyl Methoxydibenzoylmethane is determined to be 4%.

[2] = photostability of 4-Methoxybenzylidene-di-tert-butyl-malonate in O/W emulsion film under solar simulator, HPLC; type: physicochemical; details: formulation A, solar simulator up to 10 h (50 MED)
Experimental: The photostability of Butyl 4-Methoxybenzylidene-di-tert-butyl-malonate is determined by spreading the emulsion as a 20 μm thick film on four quartz plates. The plates are irradiated using a solar simulator for 1 h (5 MED), 2 h (10 MED), 4 h (20 MED) and 10 h (50 MED). After the indicated irradiation times one of the quartz plate is plunged into 5 ml of tetrahydrofurane. The amount of UV-B filter 4-Methoxybenzylidene-di-tert-butyl-malonate is then determined using high performance liquid chromatography. The residual 4-Methoxybenzylidene-di-tert-butyl-malonate is determined to be 100% (±1%) in all cases.

residual Butyl Methoxydibenzoylmethane ([1]; comparative formulation C (without benzylidene malonate))	residual Butyl Methoxydibenzoylmethane ([1]; formulation B (with 4-Methoxybenzylidene-di-tert-butyl-malonate))	photostability in an O/W sunscreen formulation [2]	SMILES
4%	47%	–	COc1ccc(C(=O)CC(=O)c2ccc(C(C)(C)C)cc2)cc1 [Butyl Methoxydibenzoylmethane, 1,3-Propanedione, 1-[4-(1,1-dimethylethyl)phenyl]-3-(4-methoxyphenyl)-]
–	–	complete photostability	COc1ccc(C=C(C(=O)OC(C)(C)C)C(=O)OC(C)(C)C)cc1 [Example 18, 4-Methoxybenzylidene-di-tert-butyl-malonate]
